According to patent US20200330444A1, “[…] FOR TREATING PAIN AND RELATED DISEASES AND CONDITIONS, AND COMPOSITIONS AND METHODS THEREOF” (NeuForm Pharmaceuticals, Inc., priority 2016, published 2020):

Legend:
[1] = In vitro metabolic stability in human liver microsome suspensions; assay type: in vitro ADME
Description: (§1) The stability time course samples were prepared and extracted immediately by protein precipitation method using acetonitrile containing 575 ng/mL carbutamide, 100 ng/mL loxapine and 10 ng/mL longdaysin as the internal standard (IS). The samples were analyzed on a Waters Acquity UPLC system coupled with a mass dspectrometer. The peak area ratios of respective extracted ion chromatograms were used for relative comparison.
(§2) 300 μL of the above 2.0 μM combo solutions were added into 1.5 mL of Eppendof tubes. The samples were put in 37° C. incubator for 10 minutes. Then 300 of 37° C. pre-warmed 0.35 mg/mL of human liver microsome (or 37.5 pmol/mL CYP3A4, or 25 pmol/mL CYP2D6) and 2.6 mM NADPH in 100 mM potassium phosphate buffer pH 7.4 (contains 3.3 mM MgCl2) was added to initiate the enzyme activity. 50.0 μL of the reaction mixture was put into 150 μL of acetonitrile with 100 ng/mL loxapine, 10 ng/ml longdaysin (IS) to stop the reaction at 0′, 15′, 30′, 60′, 2 hours, 3 hours and 4 hours. The samples were vortexed and centrifuged at 13,000 g for approximately 5 min, then supernatants were taken and stored in −20° C. freezer. After the last samples were taken and they were placed in −20° C. at least 1 hour. All samples were put into a refrigerator at approximate 4° C. for 30 min. The samples were vortexed. […]

[2] = target: CYP2D6 (Homo sapiens, UniProt P10635); experiment: In vitro metabolic stability on incubation with CYP2D6; assay type: in vitro ADME
Description: as §1, §2

Sequence of CYP2D6 (P10635 whole entry): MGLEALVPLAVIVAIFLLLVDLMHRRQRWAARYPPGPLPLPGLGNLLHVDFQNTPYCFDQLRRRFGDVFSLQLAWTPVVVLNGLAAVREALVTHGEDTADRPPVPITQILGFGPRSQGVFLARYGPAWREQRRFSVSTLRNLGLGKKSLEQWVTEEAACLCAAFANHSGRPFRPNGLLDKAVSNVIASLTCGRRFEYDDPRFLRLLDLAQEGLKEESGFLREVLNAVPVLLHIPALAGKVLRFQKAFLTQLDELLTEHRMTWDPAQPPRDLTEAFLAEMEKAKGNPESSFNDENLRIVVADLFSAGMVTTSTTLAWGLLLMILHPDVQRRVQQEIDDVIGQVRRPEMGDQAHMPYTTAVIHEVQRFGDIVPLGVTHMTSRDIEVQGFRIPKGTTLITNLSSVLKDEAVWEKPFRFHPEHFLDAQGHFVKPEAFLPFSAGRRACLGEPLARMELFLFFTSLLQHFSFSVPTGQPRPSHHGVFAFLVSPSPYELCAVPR

Row | Compound | Concentration after incubation higher than that of the non-deuterated compound ([1]; human liver microsome, 60 min) [%] | Half-life increased by, vs oliceridine ([1]; incubation with human liver microsome) [%] | Half-life increased by, vs oliceridine [2] [%]
1 | [2H]C([2H])(C[C@@]1(c2ccccn2)CCOC2(CC([2H])([2H])C([2H])([2H])C2)C1)NCc1sccc1OC [D6-Oliceridine-a] | 32 | 29 | 200
2 | [2H]C([2H])(C[C@@]1(c2ccccn2)CC([2H])([2H])OC2(CC([2H])([2H])C([2H])([2H])C2)C1)NCc1sccc1OC [D8-oliceridine] | – | – | 200
